This note sets out measurements from patent publication US10285989B2, “Pyrimidinone amide compounds as PDE2 inhibitors” (Merck Sharp & Dohme Corp., priority 2015, dated 2019).

Chain of Rhesus PDE2A3 (B3VTJ2 1-941): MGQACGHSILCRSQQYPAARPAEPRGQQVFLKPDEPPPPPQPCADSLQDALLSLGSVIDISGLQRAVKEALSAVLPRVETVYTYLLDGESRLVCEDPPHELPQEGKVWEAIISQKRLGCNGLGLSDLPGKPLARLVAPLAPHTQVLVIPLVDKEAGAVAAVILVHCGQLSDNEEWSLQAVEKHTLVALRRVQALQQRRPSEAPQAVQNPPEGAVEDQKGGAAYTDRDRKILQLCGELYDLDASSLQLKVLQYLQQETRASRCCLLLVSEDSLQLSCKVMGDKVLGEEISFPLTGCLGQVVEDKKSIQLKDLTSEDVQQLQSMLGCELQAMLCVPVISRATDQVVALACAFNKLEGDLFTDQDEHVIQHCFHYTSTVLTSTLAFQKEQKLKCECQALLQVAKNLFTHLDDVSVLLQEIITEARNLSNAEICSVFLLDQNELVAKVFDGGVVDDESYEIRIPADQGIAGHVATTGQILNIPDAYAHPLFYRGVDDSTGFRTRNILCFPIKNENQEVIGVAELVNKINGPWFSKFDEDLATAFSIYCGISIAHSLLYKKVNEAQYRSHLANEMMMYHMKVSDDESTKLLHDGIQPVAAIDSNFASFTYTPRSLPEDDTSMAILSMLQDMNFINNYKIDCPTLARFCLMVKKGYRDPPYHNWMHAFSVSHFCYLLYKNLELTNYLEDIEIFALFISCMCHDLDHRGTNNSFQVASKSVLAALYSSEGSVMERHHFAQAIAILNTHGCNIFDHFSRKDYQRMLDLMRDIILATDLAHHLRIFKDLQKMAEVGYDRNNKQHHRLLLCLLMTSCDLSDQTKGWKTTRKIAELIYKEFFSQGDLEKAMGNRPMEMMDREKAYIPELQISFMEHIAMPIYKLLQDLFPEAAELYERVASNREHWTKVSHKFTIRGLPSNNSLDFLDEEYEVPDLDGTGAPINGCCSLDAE

The first experiment addresses Rhesus PDE2A3 (Macaca mulatta, UniProt B3VTJ2). Briefly: PDE2 fluorescence polarization (IMAP FP) inhibition assay, rhesus PDE2A3. The experiment is classed as biochemical, rhesus macaque. The following applies: @ 1 μM; Lab A; read-out: Rhesus PDE2 % inhibition at a given concentration - Lab A. How it is done:
A Labcyte Echo 555 (Labcyte, Sunnyvale, Calif.) is used to dispense 200 nL from each well of the titration plate to the 384 well assay plate. Ten microliters of a solution of enzyme (1/2000 final dilution from aliquots; sufficient to produce 20% substrate conversion) was added to the assay plate. Next 10 uL of a separate solution of the substrate FAM-labeled cAMP (50 nM final concentration product # R^7506 from Molecular Devices) and the activator cGMP (1 uM final concentration), prepared in the assay buffer (10 mM Tris HCl, pH 7.2, 10 mM MgCl2, 0.05% NaN3 0.01% Tween-20, and 1 mM DTT) was added to the assay plate and shaken to mix. The reaction is allowed to proceed at room temperature for 60 minutes. A binding solution is then made from the kit components, comprised of 80% Solution A, 20% Solution B and binding reagent at a volume of 1/600 the total binding solution. The enzymatic reaction is stopped by addition of 60 μL of the binding solution to each well of the assay plates and the plates are sealed and shaken for 30 seconds. The plate was incubated at room temperature for at least one hour prior to determining the fluorescence polarization (FP). The parallel and perpendicular fluorescence of each well of the plate was measured using a Tecan Genios Pro plate reader (Tecan, Switzerland) or Perkin Elmer EnVision™ plate reader (Waltham, Mass.). Fluorescence polarization (mP) was calculated from the parallel (S) and perpendicular (P) fluorescence of each sample well and the analogous values for the median control well, containing only substrate (So and Po), using the following equation: Polarization (mP)=1000*(S/So−P/Po)/(S/So+P/Po).
Dose-inhibition profiles for each compound were characterized by fitting the mP data to a four-parameter equation given below.
An apparent (KM) for FAM-labeled cAMP of ˜10 uM was used.
In general terms: In fluorescence polarisation assays a small probe gives low polarisation when free and higher when bound to something large.
Consider `Cc1ccn(-c2nc(C(=O)N[C@H](C)c3ccc(C(F)(F)F)cc3)cc(=O)[nH]2)n1` [Example 8, (R)-2-(3-methyl-1H-pyrazol-1-yl)-6-oxo-N-(1-(4-(trifluoromethyl)phenyl)ethyl)-1,6-dihydropyrimidine-4-carboxamide], for which the inhibition at 1 µM came out at 30%.

With `Cc1cnn(-c2nc(C(=O)N[C@H](C)c3ccc(C(F)(F)F)cc3)cc(=O)[nH]2)c1` [Example 7, (R)-2-(4-methyl-1H-pyrazol-1-yl)-6-oxo-N-(1-(4-(trifluoromethyl)phenyl)ethyl)-1,6-dihydropyrimidine-4-carboxamide], the inhibition at 1 µM was found to be 25%.

The same experiment, now with this note: Lab A; read-out: Rhesus PDE2 Ki (nM) - Lab A.
Regarding `COCCOc1nc(C(=O)NC(C)c2ccc(C(F)(F)F)cc2)cc(=O)[nH]1` (centres unmarked) [Example 21, 2-(2-Methoxyethoxy)-6-oxo-N-(1-(4-(trifluoromethyl)phenyl)ethyl)-1,6-dihydropyrimidine-4-carboxamide], the inhibitory constant (Ki) was found to be 657 nM.

The next experiment deals with human PDE2A1 (Homo sapiens (Human), UniProt O00408). Kind of experiment: PDE2 IMAP FP inhibition assay, human PDE2A1 (selectivity panel format). The experiment is classed as biochemical. Particulars: @ 3 μM; Lab B; read-out: Human PDE2 % inhibition at a given concentration - Lab B. How it is done: Selectivity for PDE2, as compared to other PDE families, was assessed using the IMAP® technology. Human PDE10A2 enzyme was prepared from cytosolic fractions of transiently transfected HEK cells.
Chain of human PDE2A1 (O00408 other isoform, or with tags, fused parts or gaps): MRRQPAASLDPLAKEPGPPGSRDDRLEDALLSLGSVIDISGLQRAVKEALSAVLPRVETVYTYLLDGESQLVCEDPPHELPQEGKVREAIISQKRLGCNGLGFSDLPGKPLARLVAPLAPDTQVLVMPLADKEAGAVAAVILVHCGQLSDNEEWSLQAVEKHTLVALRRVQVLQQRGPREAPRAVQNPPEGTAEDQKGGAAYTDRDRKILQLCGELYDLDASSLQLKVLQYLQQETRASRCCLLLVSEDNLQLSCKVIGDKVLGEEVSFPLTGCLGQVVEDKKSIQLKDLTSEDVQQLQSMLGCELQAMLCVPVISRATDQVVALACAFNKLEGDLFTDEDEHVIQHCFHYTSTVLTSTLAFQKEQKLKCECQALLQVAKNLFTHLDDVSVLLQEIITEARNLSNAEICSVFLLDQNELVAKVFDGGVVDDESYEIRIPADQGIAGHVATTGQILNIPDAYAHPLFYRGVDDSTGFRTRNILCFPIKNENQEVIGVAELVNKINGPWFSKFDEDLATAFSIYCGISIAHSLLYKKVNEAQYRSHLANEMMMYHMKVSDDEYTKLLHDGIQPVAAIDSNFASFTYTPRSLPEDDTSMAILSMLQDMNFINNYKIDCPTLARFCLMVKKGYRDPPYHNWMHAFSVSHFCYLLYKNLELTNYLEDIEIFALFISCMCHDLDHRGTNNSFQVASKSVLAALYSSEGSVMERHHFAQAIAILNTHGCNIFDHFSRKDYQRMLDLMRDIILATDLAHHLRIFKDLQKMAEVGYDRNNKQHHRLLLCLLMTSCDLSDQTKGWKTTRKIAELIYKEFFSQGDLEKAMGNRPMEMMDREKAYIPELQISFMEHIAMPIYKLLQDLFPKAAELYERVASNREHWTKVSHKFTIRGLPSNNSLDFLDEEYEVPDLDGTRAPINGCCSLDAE
A Labcyte POD 810 (Labcyte, Sunnyvale, Calif.) was used to dispense 200 nL from each well of the titration plate to make eleven copies of the assay plate for each titration, one copy for each PDE enzyme. A solution of each enzyme (dilution from aliquots, sufficient to produce 20% substrate conversion) and a separate solution of FAM-labeled cAMP or FAM-labeled cGMP from Molecular Devices (Sunnyvale, Calif., product # R7506 or cGMP#R7508), at a final concentration of 50 nM were made in the assay buffer (10 mM Tris HCl, pH 7.2, 10 mM MgCl2, 0.05% NaN3 0.01% Tween-20, and 1 mM DTT). Note that the substrate for PDE2 is 50 nM FAM cAMP containing 1000 nM of cGMP. The enzyme and the substrate were then added to the assay plates in two consecutive additions of 10 μL and then shaken to mix. The reaction was allowed to proceed at room temperature for 60 minutes. A binding solution was then made from the kit components, comprised of 80% Solution A, 20% Solution B and binding reagent at a volume of 1/600 the total binding solution. The enzymatic reaction was stopped by addition of 60 μL of the binding solution to each well of the assay plate. The plates were sealed and shaken for 10 seconds. The plates were incubated at room temperature for one hour, then the parallel and perpendicular fluorescence was measured using a Tecan Genios Pro plate reader (Tecan, Switzerland). […] The intrinsic PDE2 inhibitory activity of a compound which may be used in accordance with the present invention may be determined by these assays. […]
Consider `CC(NC(=O)c1cc(=O)[nH]c(N(C)C)n1)c1ccc(C(C)(C)C(F)(F)F)cc1` (single isomer, unassigned) [Example 121, (S)- or (R)-2-(dimethylamino)-6-oxo-N-{1-[4-(2,2,2-trifluoro-1,1-dimethylethyl)phenyl]ethyl}-1,6-dihydropyrimidine-4-carboxamide], for which the inhibition at 3 µM was 15%.

Staying with this experiment, now noted: Lab B; read-out: Human PDE2 Ki (nM) - Lab B.
Turning to `CN(C)c1nc(C(=O)NC2(c3ccc(C(F)(F)F)cc3F)CC2)cc(=O)[nH]1` [Example 49, 2-(dimethylamino)-N-{1-[2-fluoro-4-(trifluoromethyl)phenyl]cyclopropyl}-6-oxo-1,6-dihydropyrimidine-4-carboxamide], the Ki came to 2.7 nM.

For the compound `CN(C)c1nc(C(=O)NC(C#N)c2ccc(C(F)(F)F)cc2)cc(=O)[nH]1` (centres unmarked) [Example 199, N-{cyano[4-(trifluoromethyl)phenyl]methyl}-2-(dimethylamino)-6-oxo-1,6-dihydropyrimidine-4-carboxamide], the Ki is 27 nM.

Consider `CN(C)c1nc(C(=O)N[C@@H](c2ccc(OC(F)(F)F)c(F)c2)C(C)(C)O)cc(=O)[nH]1` [Example 208, 2-(dimethylamino)-N-{(1S)-1-[3-fluoro-4-(trifluoromethoxy)phenyl]-2-hydroxy-2-methylpropyl}-6-oxo-1,6-dihydropyrimidine-4-carboxamide], for which the Ki stood at 0.12 nM.

`CN(C)c1nc(C(=O)N[C@](C)(CO)c2ccc(C(F)(F)F)cc2Cl)cc(=O)[nH]1` [Example 200, N-{(1S)-1-[2-chloro-4-(trifluoromethyl)phenyl]-2-hydroxy-1-methylethyl}-2-(dimethylamino)-6-oxo-1,6-dihydropyrimidine-4-carboxamide]: the inhibitory constant (Ki) was found to be 0.52 nM.

In the case of `CC(C)[C@@H](NC(=O)c1cc(=O)[nH]c(N(C)C)n1)c1ccc(C(C)(F)F)cc1` [Example 75, N-{(1R)-1-[4-(1,1-difluoroethyl)phenyl]-2-methylpropyl}-2-(dimethylamino)-6-oxo-1,6-dihydropyrimidine-4-carboxamide], the Ki was 0.39 nM.

Regarding `CN(C)c1nc(C(=O)N[C@@H](c2ccc(OC(F)F)c(F)c2)C2CC2)cc(=O)[nH]1` [Example 53, N-{(R)-cyclopropyl[4-(difluoromethoxy)-3-fluorophenyl]methyl}-2-(dimethylamino)-6-oxo-1,6-dihydropyrimidine-4-carboxamide], the Ki worked out at 4 nM.

Regarding `CN(C)c1nc(C(=O)NC(c2ccccc2)c2ccc(C(F)(F)F)cc2)cc(=O)[nH]1` (centres unmarked) [Example 195, 2-(dimethylamino)-6-oxo-N-{phenyl[4-(trifluoromethyl)phenyl]methyl}-1,6-dihydropyrimidine-4-carboxamide], the Ki was 81 nM.

`CC(NC(=O)c1cc(=O)[nH]c(N(C)C)n1)c1ccc(C(C)(C)C(F)(F)F)cc1` (single isomer, unassigned) [Example 122, (R)- or (S)-2-(dimethylamino)-6-oxo-N-{1-[4-(2,2,2-trifluoro-1,1-dimethylethyl)phenyl]ethyl}-1,6-dihydropyrimidine-4-carboxamide]: the Ki worked out at 34 nM.

For the compound `CN(C)c1nc(C(=O)NC(c2ccncc2)c2ccc(C(F)(F)F)cc2)cc(=O)[nH]1` (centres unmarked) [Example 196, 2-(dimethylamino)-6-oxo-N-{pyridin-4-yl[4-(trifluoromethyl)phenyl]methyl}-1,6-dihydropyrimidine-4-carboxamide], the Ki turned out to be 91 nM.

Regarding `C[C@@H](NC(=O)c1cc(=O)[nH]c(N(C)C)n1)c1ccc(S(F)(F)(F)(F)F)cc1F` [Example 116, (R)-2-(dimethylamino)-N-(1-(4-(pentafluorothio)-2-fluorophenyl)ethyl)-6-oxo-1,6-dihydropyrimidine-4-carboxamide], the Ki is 749 nM.

As for `CN(C)c1nc(C(=O)N[C@H]2COCc3cc(C(F)(F)F)ccc32)cc(=O)[nH]1` [Example 198, 2-(dimethylamino)-6-oxo-N-[(4R)-7-(trifluoromethyl)-3,4-dihydro-1H-isochromen-4-yl]-1,6-dihydropyrimidine-4-carboxamide], the inhibition constant (Ki) is 863 nM.

As for `CN(C)c1nc(C(=O)NC2(c3ccc(OC(F)F)cc3)CC2)cc(=O)[nH]1` [Example 52, N-{1-[4-(difluoromethoxy)phenyl]cyclopropyl}-2-(dimethylamino)-6-oxo-1,6-dihydropyrimidine-4-carboxamide], the inhibition constant (Ki) was 11 nM.

Regarding `COC(=O)C(NC(=O)c1cc(=O)[nH]c(N(C)C)n1)c1ccc(C(F)(F)F)cc1` (centres unmarked) [Example 205, methyl ({[2-(dimethylamino)-6-oxo-1,6-dihydropyrimidin-4-yl]carbonyl}amino)[4-(trifluoromethyl)phenyl]acetate], the inhibitory constant (Ki) is 49 nM.

With `CN(C)c1nc(C(=O)N[C@@](C)(CO)c2ccc(C(F)(F)F)cc2Cl)cc(=O)[nH]1` [Example 209, N-{(1R)-1-[2-chloro-4-(trifluoromethyl)phenyl]-2-hydroxy-1-methylethyl}-2-(dimethylamino)-6-oxo-1,6-dihydropyrimidine-4-carboxamide], the inhibition constant (Ki) worked out at 3.9 nM.

Turning to `CN(C)c1nc(C(=O)NC(c2ccc(S(F)(F)(F)(F)F)cc2F)C(C)(C)C)cc(=O)[nH]1` (single isomer, unassigned) [Example 127, (S)- or (R)-2-(dimethylamino)-N-{1-[2-fluoro-4-(pentafluoro-λ^6-sulfanyl)phenyl]-2,2-dimethylpropyl}-6-oxo-1,6-dihydropyrimidine-4-carboxamide], the Ki came to 527 nM.

For the compound `CN(C)c1nc(C(=O)NC(CC#N)c2ccc(C(F)(F)F)cc2)cc(=O)[nH]1` (centres unmarked) [Example 203, N-{2-cyano-1-[4-(trifluoromethyl)phenyl]ethyl}-2-(dimethylamino)-6-oxo-1,6-dihydropyrimidine-4-carboxamide], the Ki amounted to 22 nM.

Regarding `CN(C)c1nc(C(=O)NC(C)(C)c2ccc(OC(F)(F)F)cc2F)cc(=O)[nH]1` [Example 81, 2-(dimethylamino)-N-{1-[2-fluoro-4-(trifluoromethoxy)phenyl]-1-methylethyl}-6-oxo-1,6-dihydropyrimidine-4-carboxamide], the Ki was determined as 21 nM.

Regarding `CN(C)c1nc(C(=O)NC2(c3ccc(C(F)(F)F)cc3)CCCC2)cc(=O)[nH]1` [Example 202, 2-(dimethylamino)-6-oxo-N-{1-[4-(trifluoromethyl)phenyl]cyclopentyl}-1,6-dihydro-pyrimidine-4-carboxamide], the Ki was found to be 5.4 nM.

For the compound `CN(C)c1nc(C(=O)N[C@H]2CCCc3cc(C(F)(F)F)ccc32)cc(=O)[nH]1` [Example 204, 2-(dimethylamino)-6-oxo-N-[(1S)-6-(trifluoromethyl)-1,2,3,4-tetrahydronaphthalen-1-yl]-1,6-dihydropyrimidine-4-carboxamide], the Ki is 129 nM.

For orientation: Ki means the dissociation constant of the complex between target and ligand, obtained from inhibition or displacement.
